Entries after “also recorded” stand apart in the source; their conditions may differ. Counter-ions that a name gives are not always drawn. Marks after values point to notes of the source that are not given here.

Data on ten compounds can be found in US10921327B2, “Probes for quantitative imaging of thiols in various environments” (Baylor College of Medicine, priority 2014, dated 2021).

The nature of series [1]: Equilibrium (dissociation constant) of probe and GSH reaction, UV-Vis/fluorescence. It counts as binding. Particulars: reaction with various concentration of GSH in water/PBS pH 7.4; based on UV-Vis; read-out: Kd′ observed (apparent) dissociation constant. How it is done: Applicants also determined Keq between TQ Green and GSH and the relationship of the ratiometric change as a function of GSH concentration. Kd′ is the apparent dissociation constant for the reaction between TQ Green and GSH. The following equation can be derived:
Plotting (R−Rmin)/(Rmax−R) as a function of GSH concentration afforded a superb linear relationship with r^2=0.999 (FIGS. 6-7).
TQ Green was dissolved in PBS buffer (10 mM, pH 7.4) containing 1% DMSO with concentration at 32 μM. GSH was dissolved in the same PBS buffer with concentration from 0-80 mM. Above solutions were mixed at 1:1 ratio. All solutions were protected with nitrogen and stored in glove box to prevent any oxygen entering the solution. Samples of all solutions were taken out at 1, 18, 72, and 144 hours after mixing. UV-Vis and fluorescence were measured for all solutions.
(§1) Compounds 3b-d were dissolved in DMSO (10 mM) and 1 eq of 2 M β-mercaptoethanol (BME) was added. Compounds 3a and TQ Green were dissolved in PBS buffer (10 mM, pH 7.4) with 1% DMSO. GSH solution was added to reach a final concentration of 80 mM with compound 3a at 10 μM and TQ Green at 16 μM, respectively. All solutions were then monitored continuously with UV-Vis and fluorimeter for 2 hours (Table 1).

The nature of series [2]: UV-Vis absorption, fluorescence and quantum yield. The following applies: for Quantum Yield (PBS): λex = 479 nm (TQ Green), 406 nm (TQ Green-GSH). The series is classed as physicochemical. An excerpt: TQ Green absorbs at 479 nm and fluoresces at 590 nm (λex=488 nm, FIG. 3). The extinction coefficients of TQ Green and TQ Green-GSH at their maximum absorption wavelengths are (2.3±0.2)×10^4 M^−1·cm^−1 (a, =479 nm, Table 2) and (1.6±0.2)×10^4 M^−1·cm^−1 (λmax=407 nm, Table 1), respectively. Upon reacting with GSH, the Abs and Fl peaks shift hypsochromically to 406 and 463 nm (λex=405 nm), respectively. The Abs of TQ Green and TQ Green-GSH (the adduct between TQ Green and GSH) are close to 488 and 405 nm, respectively, which are two commonly used laser wavelengths for confocal microscopes. […]
NMR spectra were recorded on a Varian NMR (^1H at 400 MHz) spectrometer. Chemical shifts (δ) were given in ppm with reference to solvent signals [^1H NMR: CDCl3 (7.26), CD3OD (3.31)]. UV-Vis measurements were performed with 2×10 mm quartz cuvette in Cary 60 UV-is Spectrometer. Fluorescence measurements were performed with the same quartz cuvette in Cary Eclipse Fluorescence Spectrophotometer with an excitation slit of 5 nm, an emission slit of 10 nm and PMT at 650 V. Flash chromatography was performed on a Teledyne ISCO CombiFlashRf200. Olympus FV1000 laser scanning confocal microscope system was used for cell imaging. ESI mass spectrometry was measured on a BrukerMS microTOF ESI, at the Shared Equipment Authority at Rice University. Flow cytometry was performed on BD LSR II Flow Cytometer at BCM core facilities.
As summarized in Table 5, quantum yields of synthesized GSH probes and a GSH adduct with Rhodamine 123 as the standard were analyzed. Quantum yields were determined using a comparative method described previously. The bromine atom on the phenyl ring potentially enhances the push-pull effect of the coumarin-based fluorophore, thus increases the quantum yield.

A short description of series [3]: Reaction kinetics and reversibility of probe with GSH (UV-Vis). The following applies: 10 mM GSH in PBS, room temperature; TQ Green 16 μM, probe 3a 10 μM. Here is the method: The reaction between TQ Green and GSH is reversible.
The second-order rate constant between TQ Green and GSH is 0.150±0.001M^−1·s^−1. There were no appreciable Abs changes observed after 20 minutes. Following a pause for another 80 minutes to ensure that the equilibrium between TQ Green and GSH was fully established, Applicants added two equivalents of an irreversible Michael acceptor (5,6-dihydro-2H-pyran-2-one) to deplete all the GSH in solution (FIG. 4A).
GSH in PBS was added to a solution of TQ Green in PBS buffer (10 mM, pH 7.4) containing 1% DMSO. The final concentrations of GSH and TQ Green were 10 mM and 16 μM, respectively. The solutions were then monitored continuously with UV-Vis spectrometer (FIGS. 21A-D).

The nature of series [4]: Solubility. The following applies: for solubility: PBS buffer, aqueous buffer. The series is classed as physicochemical.
Series [5] can be described thus: Reactivity of probes against β-mercaptoethanol in DMSO. It counts as binding. Here is the method:
as §1

In series [6] the test system is PANC-1 cells. Kind of series: GSH level changes in PANC-1 cells upon DEM treatment (TQ Green live imaging). It counts as cell-based. Here is the method: PANC-1 cells were treated with diethyl maleate (50 μM) for 24 hours and 2 hours to inhibit and stimulate GSH levels, respectively. All the cells were imaged 24 hours after starting the experiment. Results are statistical analyses of more than 25 cells. P values shown are based on unpaired student t-tests. Error bars represent standard deviations.
Applicants also treated PANC-1 cells with DEM for a very short time to stimulate the uptake of cysteine, thus increasing the GSH levels. After removal of DEM, the cells were further incubated under normal conditions for an additional 22 hours before imaging. […] Importantly, the GSH level obtained in DEM non-treated cells after 24 hours was essentially the same as the value measured at time zero (P=0.63), indicating excellent reproducibility of live imaging based GSH quantification.
PANC-1 cells were incubated with DEM (50 μM) for 2 hours for stimulation of cysteine uptake. After replacing with fresh medium, cells were cultured at normal conditions for another 22 hours. A separate dish of PANC-1 cells were incubated with DEM (50 μM) as an inhibitor for 24 hours. […] GSH concentrations were calculated based on the calibration curve. FACS was performed from harvested cells after treatment, fluorescent intensities were recorded with 405 nm laser/420-460 nm filter (pacific blue channel), and 488 nm laser/515-545 nm filter (FITC channel). […]

For series [7] the following is noted: 10 mM solution, capped tube, 10 hour time period, HPLC 254 nm. Here is the method:
A GSH solution (10 mM) was placed in a capped Eppendorf tube. Samples of solution were taken out for HPLC measurement every two hours. […] The percentage was calculated from the HPLC peak area monitored at 254 nm.

For series [8] the following is noted: methanol; cited from earlier work.
Series [9] in a line: Hydrolysis of TQ Green-AM in PBS and diluted HeLa cell lysate (HPLC UV-vis/MS). The series is classed as in vitro ADME. Particulars: 40 μM, 37° C. Here is the method: In order to allow TQ Green to efficiently penetrate into cells for GSH measurements, Applicants converted the carboxylic acid group to an acetoxymethyl (AM) ester (FIG. 10). Once inside cells, the AM ester will be readily hydrolyzed by esterases to regenerate TQ Green. To verify this, Applicants incubated TQ Green-AM (FIG. 11, 40 μM) in PBS for 2 hours and in a 500 times diluted HeLa cell lysate for 10 hours at 37° C. (Note: the dilution factor for the cell lysate is calculated based on the fact that ˜400,000 of HeLa cells, which have a total volume of ˜2 μL, were lysed in 1 mL of lysis buffer, resulting in 500 times dilution of cellular components, Table 3). A mixture of TQ Green and TQ Green-AM standard samples and the reaction mixtures after incubation in PBS and in cell lysate were separated using high performance liquid chromatography (HPLC) with a tandem of UV-vis and mass spectrometer (MS) detectors.
TQ Green-AM (40 μM) was incubated in PBS for 2 hours and in a 500 times diluted HeLa cell lysate for 10 hours at 37° C. The reaction products were analyzed by HPLC with a tandem of UV-vis and MS detectors. Analytical standards TQ Green and TQ Green-AM (red trace C) were used to determine the retention time of the corresponding compounds. […] Under the elution conditions used, TQ Green and TQ Green-GSH cannot be separated. However, their identities were confirmed by MS. […]

The subject of series [10] is cells. Kind of series: Confocal imaging of probe interacting with cells (cell penetration). It counts as cell-based. Here is the method: FIG. 10 provides confocal images at 488 nm channel of TQ Green (acid form, FIG. 10A), and TQ Green-AM (ester form, FIG. 10B) interacting with cells.
All cell lines used in this study were purchased from American Type Culture Collection (ATCC) and grown in DMEM (Gibco, 11965) media supplemented with 10% FBS and 1% 1003 Pen Strep (Gibco). Cells were cultured under a controlled atmosphere (37° C., 5% CO2). Glass dishes were used for cell culture due to confocal scanning requirements. Cells were treated with TQ Green-AM (20 nM-1 μM with 0.0025-1% DMSO in PBS) for 30 minutes, followed by two washing steps with tryptan blue and PBS prior to imaging. Fluorescent images were acquired with 405 nm laser/430-470 nm filter and 488 nm laser/575-620 nm filter. All the microscope settings were kept consistent in each experiment.

A short description of series [11]: Log D in octanol-PBS (pH 7.4) biphasic system. The series is classed as physicochemical. Particulars: pH 7.4, read-out: Log D, estimated value based on HPLC result. An excerpt:
To further understand TQ Green distribution between hydrophobic and hydrophilic environments, Applicants measured the Log D values of TQ Green and TQ Green-GSH using an octanol-PBS (pH 7.4) biphasic system (Table 2). […] In addition, Applicants discovered that the absorbance maximum of TQ Green shifts from 480 nm to 455 nm when changing the solvents from PBS to octanol. Applicants hypothesize that if TQ Green is distributed in lipid membranes, the absorbance maximum and fluorescence intensity will change. […] Consistent with the Log D measurements, this experiment also supports the hypothesis that TQ Green accumulates in lipid membranes. Considering the high quantum yield of TQ Green in hydrophobic solvents, lipid enrichment of TQ Green seemingly complicates intracellular GSH quantification. […] However, the Kd′ values may be different under calibration conditions and inside cells, which may introduce a systemic error.

The conditions of series [12]: cited from earlier work.

In the case of `CCN(CC)c1ccc2cc(/C=C/C(=O)c3ccc(C(=O)O)cc3)c(=O)oc2c1` [Compound 3a], in series [1], the Kd was found to be 1500 µM. Besides, the “Quantum Yield (Methanol)” value in series [2] (methanol, Rhodamine 123 as standard) came to 0.062 ± 0.002. Moreover, the “Time to reach 95% of conversion” value in [3] is around 6 min. For the same compound, in series [4], the solubility (as a rule, the concentration that dissolves in the medium under given conditions) is above 500 µM.

Turning to `CCN(CC)c1ccc2cc(/C=C/C(=O)c3ccccc3)c(=O)oc2c1` [Compound 3b], in [4], the solubility was below 10 µM.

On to `CCN(CC)c1ccc2cc(/C=C(\C)C(=O)c3ccccc3)c(=O)oc2c1` [Compound 3c], for which the solubility in series [4] is below 10 µM. Besides, the “Michael addition between thiol and probe” value in series [5] is “significantly blocks the Michael addition”.

Compound `CCN(CC)c1ccc2cc(/C=C/C(=O)c3ccccc3O)c(=O)oc2c1` [Compound 3d] displayed a solubility in series [4] below 10 µM. The Kd in series [5] (β-mercaptoethanol in DMSO, read-out: Kd′ observed dissociation constant) was around 2000 µM.

On to `CCOC(=O)/C=C\C(=O)OCC` [DEM, diethyl maleate], for which, in series [6] (50 μM for 2 hours, then 22 hours normal conditions (stimulation)), the “Increase in GSH levels” value worked out at 28%. Also, the “Decrease in GSH levels” value in series [6] (50 μM for 24 hours (inhibition)) is listed as 27%.

Consider `N[C@@H](CCC(=O)N[C@@H](CS)C(=O)NCC(=O)O)C(=O)O` [GSH, glutathione], for which the “GSH oxidized in air” value in [7] is listed as “About 20%”. For the same compound, in [4], the Solubility in octanol entry is listed as “not soluble”.

On to `COC(=O)c1ccccc1-c1c2ccc(=N)cc-2oc2cc(N)ccc12.Cl` [Rhodamine 123], for which, in [8], the “Quantum Yield, used as standard” value is 0.94*.

For the compound `CCN(CC)c1ccc2cc(/C=C/C(=O)c3ccc(C(=O)OCOC(C)=O)cc3Br)c(=O)oc2c1` [TQ Green-AM], the “Hydrolysis in diluted cell lysate” value in [9] (500 times diluted HeLa cell lysate, 10 hours) was “completely converted to a mixture of TQ Green and TQ Green-GSH adduct; also recorded: completely hydrolyzed”. Moreover, the “Hydrolysis in PBS” value in series [9] (PBS, 2 hours) was “resistant to hydrolysis; also recorded: did not show appreciable hydrolysis”. Further, the “Cell penetration (confocal, 488 nm channel)” value in series [10] is “able to penetrate through cell the membrane”.

For `CCN(CC)c1ccc2cc(C(CC(=O)c3ccc(C(=O)O)cc3Br)SCC(NC(=O)CCC(N)C(=O)O)C(=O)NCC(=O)O)c(=O)oc2c1` (stereo not shown) [TQ Green-GSH], the logD in [11] was below -1. Further, the “Abs Max Wavelength” value in series [2] (PBS pH 7.4) amounted to 406 nm. The “Fl Emission Max Wavelength” value in series [2] (PBS pH 7.4, λex = 488 nm (TQ Green), λex = 405 nm (TQ Green-GSH)) stood at 463 nm. The results for the “Quantum Yield (PBS)” value in series [2] and in series [2] (listed as drawing 20) were 0.0059±0.0003 and 0.0059 ± 0.0003, respectively. The Solubility in methanol entry in [4] (methanol) was “^aTQ Green-GSH is not soluble in methanol”. Further, in [4], the Solubility in octanol result was “not soluble”.

Regarding `FC(F)(F)c1ccc(S)cc1` [p-trifluorobenzenethiol], the pKa (in general, the pH at which an ionisable group is half protonated) in [12] is 5.5.
